From patent publication US20210355104A1, “ADENOSINE RECEPTOR BINDING COMPOUNDS” (Nikang Therapeuticsm Inc., priority 2018, published 2021)

Each compound was assayed against Adenosine A2A receptor (Homo sapiens, UniProt P29274) (assay: Adenosine A2A receptor competitive binding assay (Tag-lite HTRF)). Conditions: Tag-lite adenosine A2A receptor ligand binding, 2 h room temperature; values separated by / are repeat determinations.
Protocol: Adenosine A2A Receptor Competitive Binding Assay
The Tag-lite adenosine A2A receptor ligand binding assay is a homogeneous alternative to radioligand binding assay and developed by Cisbio (Bedford, Mass.). We carried out this assay following Cisbio's instructions with minor modification. Pre-transfected, fluorescent donor-labelled cells (Cisbio Cat#: C1TT1A2A, 200 testes) was stored at −80° C. and thawed right before use. Cells were washed once with 5 ml TLB and gently resuspended in 2 ml TLB. 4 μl suspended cells was dispensed into each well of white low-volume 384-well plate (Greiner Bio-One). Serial dilutions of compounds were prepared in Tag-lite buffer (TLB, Cisbio Cat #: LABMED) to a DMSO concentration of 0.6%. After adding 4 μl of compound dilutions to each well, 4 μl60 nM Adenosine A2A receptor red antagonist fluorescent ligand (Cisbio Cat #: L0058RED) was dispensed to each well. The 384-well assay plate was centrifuged briefly and incubated at room temperature for 2 h. HTRF signals were measured using CIARIOstar plate reader (BMG Labtech).

Sequence of Adenosine A2A receptor (P29274 whole entry): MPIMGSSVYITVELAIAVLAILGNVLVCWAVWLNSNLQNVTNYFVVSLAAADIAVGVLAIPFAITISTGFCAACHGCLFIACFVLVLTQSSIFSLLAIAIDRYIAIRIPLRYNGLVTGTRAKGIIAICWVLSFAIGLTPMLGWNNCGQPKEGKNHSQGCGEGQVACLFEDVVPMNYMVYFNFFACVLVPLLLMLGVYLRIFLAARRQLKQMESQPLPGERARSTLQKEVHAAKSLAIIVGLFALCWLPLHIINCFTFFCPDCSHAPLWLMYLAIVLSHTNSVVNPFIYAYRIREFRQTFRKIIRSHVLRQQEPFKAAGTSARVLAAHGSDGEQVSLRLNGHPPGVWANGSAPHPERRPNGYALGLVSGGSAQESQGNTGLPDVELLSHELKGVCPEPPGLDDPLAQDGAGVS

SMILES	IC50 [nM]
CCN(CC)C(=O)CN(C)c1nc(N)nc(-c2ccccc2)c1-c1cc(C)nc(C(F)(F)F)c1 [Example 38, 2-((2-amino-5-(2-methyl-6-(trifluoromethyl)pyridin-4-yl)-6-phenylpyrimidin-4-yl)(methyl)amino)-N,N-diethylacetamide]	816
Cc1cc(-c2c(Oc3ccccc3)nc(N)nc2-c2ccc(F)cc2)cc(C(F)F)n1 [Example 47, 5-(2-(difluoromethyl)-6-methylpyridin-4-yl)-4-(4-fluorophenyl)-6-phenoxypyrimidin-2-amine]	21.3
Cc1cc(-c2c(OCCc3ccc(N4CCN(S(C)(=O)=O)CC4)cc3)nc(N)nc2-c2ccc(F)cc2)cc(C(F)F)n1 [Example 58, 5-(2-(difluoromethyl)-6-methylpyridin-4-yl)-4-(4-fluorophenyl)-6-(4-(4-(methylsulfonyl)piperazin-1-yl)phenethoxy)pyrimidin-2-amine]	28
Cc1cc(-c2c(OCCc3ccc(N4CCN(C5COC5)CC4)cc3)nc(N)nc2-c2ccc(F)cc2)cc(C(F)F)n1 [Example 64, 5-[2-(difluoromethyl)-6-methylpyridin-4-yl]-4-(4-fluorophenyl)-6-(2-[4-[4-(oxetan-3-yl)piperazin-1-yl]phenyl]ethoxy)pyrimidin-2-amine]	31
COC(=O)Nc1ccc(CCOc2nc(N)nc(-c3ccc(F)cc3)c2-c2cc(C)nc(C(F)F)c2)cc1 [Example 72, Methyl(4-(2-((2-amino-5-(2-(difluoromethyl)-6-methylpyridin-4-yl)-6-(4-fluorophenyl)pyrimidin-4-yl)oxy)ethyl)phenyl)carbamate]	41
Cc1cc(-c2c(OCCc3ccc(C#N)cc3)nc(N)nc2-c2ccc(F)cc2)cc(C(F)F)n1 [Example 93, 4-(2-((2-amino-5-(2-(difluoromethyl)-6-methylpyridin-4-yl)-6-(4-fluorophenyl)pyrimidin-4-yl)oxy)ethyl)benzonitrile]	133
Cc1cc(-c2c(C(=O)NC3CCCc4cccnc43)nc(N)nc2-c2ccc(F)cc2)cc(C(F)F)n1 (stereo not drawn) [Example 100, 2-amino-5-(2-(difluoromethyl)-6-methylpyridin-4-yl)-6-(4-fluorophenyl)-N-(5,6,7,8-tetrahydroquinolin-8-yl)pyrimidine-4-carboxamide]	66
Cc1cc(-c2c(C(=O)NCc3cccc(C(C)C)n3)nc(N)nc2-c2ccc(F)cc2)cc(C(F)F)n1 [Example 108, 2-amino-5-(2-(difluoromethyl)-6-methylpyridin-4-yl)-6-(4-fluorophenyl)-N-((6-isopropylpyridin-2-yl)methyl)pyrimidine-4-carboxamide]	222
Cc1cc(-c2c(C(=O)NCc3cccc(C4CC4)n3)nc(N)nc2-c2ccc(F)cc2)cc(C(F)F)n1 [Example 109]	205
Cc1cc(-c2c(C(=O)NCc3cccc(C(C)(C)O)n3)nc(N)nc2-c2ccc(F)cc2)cc(C(F)F)n1 [Example 110, 2-amino-5-(2-(difluoromethyl)-6-methylpyridin-4-yl)-6-(4-fluorophenyl)-N-((6-(2-hydroxypropan-2-yl)pyridin-2-yl)methyl)pyrimidine-4-carboxamide]	250

More lines, now with the values ahead:

IC50 [nM]	SMILES
10.2	Cc1cc(-c2c(OCC3COC3)nc(N)nc2-c2ccc(F)cc2)cc(C(F)F)n1 [Example 37, 5-(2-(difluoromethyl)-6-methylpyridin-4-yl)-4-(4-fluorophenyl)-6-(oxetan-3-ylmethoxy)pyrimidin-2-amine]
295	Cc1cc(-c2c(OCC(=O)NC3CCOCC3)nc(N)nc2-c2ccc(F)cc2)cc(C(F)F)n1 [Example 40, 2-((2-amino-5-(2-(difluoromethyl)-6-methylpyridin-4-yl)-6-(4-fluorophenyl)pyrimidin-4-yl)oxy)-N-(tetrahydro-2H-pyran-4-yl)acetamide]
5.2	Cc1cc(-c2c(OCC(=O)NC3CC3)nc(N)nc2-c2ccc(F)cc2)cc(C(F)F)n1 [Example 42, 2-((2-amino-5-(2-(difluoromethyl)-6-methylpyridin-4-yl)-6-(4-fluorophenyl)pyrimidin-4-yl)oxy)-N-cyclopropylacetamide]
266	Cc1cc(-c2c(OCC(=O)NCCN(C)C)nc(N)nc2-c2ccc(F)cc2)cc(C(F)F)n1 [Example 43, 2-((2-amino-5-(2-(difluoromethyl)-6-methylpyridin-4-yl)-6-(4-fluorophenyl)pyrimidin-4-yl)oxy)-N-(2-(dimethylamino)ethyl)acetamide]
1210	Cc1cc(-c2c(OCC(=O)NC3CCN(C)CC3)nc(N)nc2-c2ccc(F)cc2)cc(C(F)F)n1 [Example 44, 2-((2-amino-5-(2-(difluoromethyl)-6-methylpyridin-4-yl)-6-(4-fluorophenyl)pyrimidin-4-yl)oxy)-N-(1-methylpiperidin-4-yl)acetamide]
13.9	Cc1cc(-c2c(OCCN3CCN(S(C)(=O)=O)CC3)nc(N)nc2-c2ccc(F)cc2)cc(C(F)F)n1 [Example 49, 5-(2-(difluoromethyl)-6-methylpyridin-4-yl)-4-(4-fluorophenyl)-6-(2-(4-(methylsulfonyl)piperazin-1-yl)ethoxy)pyrimidin-2-amine]
535	Cc1cc(-c2c(OCC(=O)NCCCS(C)(=O)=O)nc(N)nc2-c2ccc(F)cc2)cc(C(F)F)n1 [Example 50, 2-((2-amino-5-(2-(difluoromethyl)-6-methylpyridin-4-yl)-6-(4-fluorophenyl)pyrimidin-4-yl)oxy)-N-(3-(methylsulfonyl)propyl)acetamide]
> 1000	Cc1cc(-c2c(OCC(O)C(C)(C)O)nc(N)nc2-c2ccc(F)cc2)cc(C(F)F)n1 (stereo not drawn) [Example 91, 1-((2-amino-5-(2-(difluoromethyl)-6-methylpyridin-4-yl)-6-(4-fluorophenyl)pyrimidin-4-yl)oxy)-3-methylbutane-2,3-diol]
61	Cc1cc(-c2c(OCC3CCN(S(C)(=O)=O)CC3)nc(N)nc2-c2ccc(F)cc2)cc(C(F)F)n1 [Example 96, 5-(2-(difluoromethyl)-6-methylpyridin-4-yl)-4-(4-fluorophenyl)-6-((1-(methylsulfonyl)piperidin-4-yl)methoxy)pyrimidin-2-amine]
70	Cc1cc(-c2c(OCC(=O)N(C)C3COC3)nc(N)nc2-c2ccc(F)cc2)cc(C(F)F)n1 [Example 101, 2-((2-amino-5-(2-(difluoromethyl)-6-methylpyridin-4-yl)-6-(4-fluorophenyl)pyrimidin-4-yl)oxy)-N-methyl-N-(oxetan-3-yl)acetamide]
> 1000	Cc1cc(-c2c(OCC3(O)CCOCC3)nc(N)nc2-c2ccc(F)cc2)cc(C(F)F)n1 [Example 104, 4-(((2-amino-5-(2-(difluoromethyl)-6-methylpyridin-4-yl)-6-(4-fluorophenyl)pyrimidin-4-yl)oxy)methyl)tetrahydro-2H-pyran-4-ol]
44	Cc1cc(-c2c(OCC(=O)Nc3ccccn3)nc(N)nc2-c2ccc(F)cc2)cc(C(F)F)n1 [Example 107, 2-((2-amino-5-(2-(difluoromethyl)-6-methylpyridin-4-yl)-6-(4-fluorophenyl)pyrimidin-4-yl)oxy)-N-(pyridin-2-yl)acetamide]
165	Cc1cc(-c2c(OCc3nccn3C3CCOCC3)nc(N)nc2-c2ccc(F)cc2)cc(C(F)F)n1 [Example 172, 5-(2-(difluoromethyl)-6-methylpyridin-4-yl)-4-(4-fluorophenyl)-6-((1-(tetrahydro-2H-pyran-4-yl)-1H-imidazol-2-yl)methoxy)pyrimidin-2-amine]

Same assay, conditions: Tag-lite adenosine A2A receptor ligand binding, HTRF

SMILES	IC50 [nM]
Cc1cc(-c2c(OCc3nccn3CCC(C)(C)C(=O)O)nc(N)nc2-c2ccc(F)cc2)cc(C(F)F)n1 [Example 216, 4-(2-(((2-amino-5-(2-(dilfluoromethyl)-6-methylpyridin-4-yl)-6-(4-fluorophenyl)pyrimidin-4-yl)oxy)methyl)-1H-imidazol-1-yl)-2,2-dimethylbutanoic acid]	306
CCn1cnnc1COc1nc(N)nc(-c2ccc(F)cc2)c1-c1cc(C)nc(C(F)F)c1 [Example 222, 5-(2-(difluoromethyl)-6-methylpyridin-4-yl)-4-((4-ethyl-4H-1,2,4-triazol-3-yl)methoxy)-6-(4-fluorophenyl)pyrimidin-2-amine]	15

Next, values leading:

IC50 [nM]	SMILES
13	CCc1nnn(C)c1COc1nc(N)nc(-c2ccc(F)cc2)c1-c1cc(C)nc(C(F)F)c1 [Example 200, 5-(2-(difluoromethyl)-6-methylpyridin-4-yl)-4-((4-ethyl-1-methyl-1H-1,2,3-triazol-5-yl)methoxy)-6-(4-fluorophenyl)pyrimidin-2-amine]
14	Cc1cc(-c2c(OCc3nnn(CC4CC4)n3)nc(N)nc2-c2ccc(F)cc2)cc(C(F)F)n1 [Example 220, 4-((2-(cyclopropylmethyl)-2H-tetrazol-5-yl)methoxy)-5-(2-(difluoromethyl)-6-methylpyridin-4-yl)-6-(4-fluorophenyl)pyrimidin-2-amine]
